*1 amine or outer side, *2 acyl side, *3 side chain or, on linkers, in order; H or OH if unused. Where a SMILES comes first, the peptide text is derived from it. Bridges are numbered along the chain shown (N, C = ends). [ ]: non-standard residue; d: D form. The star is where a group is joined. C20 diacid = O=C(O)CCCCCCCCCCCCCCCCCCC(=O)*; γGlu = O=C(O)[C@H](CCC(=O)[*:2])N[*:1]; Hyp = O=C(O)[C@@H]1C[C@@H](O)CN1; NMeI = CC[C@H](C)[C@H](NC)C(=O)O; Sar = CNCC(=O)O
What was measured:
[1] = Assessment of chemical stability (RP-HPLC normalized purity); assay type: physicochemical; conditions: 7 days, 40° C., Table 1; for Normalized purity after 7 days, 40° C., pH 4: pH 4, 0.2 mg/ml; for Normalized purity after 7 days, 40° C., pH 6: pH 6, 0.2 mg/ml; for Normalized purity after 7 days, 40° C., pH 7.5: pH 7.5, 0.2 mg/ml; for Normalized purity after 7 days, 40° C., pH 9: pH 9, 0.2 mg/ml
Procedure, shortened: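 Peptides at 0.2 mg/ml in water adjusted to pH 4, 6, 7.5 or 9, incubated at 40° C for 7 days. Main-peak area-% by RP-HPLC (C8 ammonium formate or C18 TFA gradient, UV 220 nm), normalized to T=0 as 100.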

[2] = target: T1, human amylin receptor 3 (hAMYR3), hCTR2 co-expressed with hRAMP3 (Homo sapiens, UniProt O60896+P30988); test: hAMYR3 cAMP assay (AlphaScreen) in COS7 cells; assay type: cell-based; conditions: cAMP induction, COS7 cells expressing hAMYR3; Table 1; read-out: hAMYR3 EC50
T1 construct: expressed in transfected cells
T1 sequence (P30988 25-474): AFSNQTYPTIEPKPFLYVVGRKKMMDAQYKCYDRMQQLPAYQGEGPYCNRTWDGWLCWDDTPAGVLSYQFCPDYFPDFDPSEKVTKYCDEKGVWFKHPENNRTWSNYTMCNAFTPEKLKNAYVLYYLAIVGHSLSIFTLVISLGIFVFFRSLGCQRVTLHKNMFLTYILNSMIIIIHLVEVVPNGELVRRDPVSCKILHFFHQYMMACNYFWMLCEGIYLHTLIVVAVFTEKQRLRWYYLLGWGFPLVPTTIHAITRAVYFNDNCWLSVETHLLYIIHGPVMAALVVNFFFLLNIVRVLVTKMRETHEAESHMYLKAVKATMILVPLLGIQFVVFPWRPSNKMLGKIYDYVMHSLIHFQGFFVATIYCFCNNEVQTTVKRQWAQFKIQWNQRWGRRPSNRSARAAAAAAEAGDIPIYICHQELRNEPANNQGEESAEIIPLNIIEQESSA
T1 sequence (O60896 24-148 partner): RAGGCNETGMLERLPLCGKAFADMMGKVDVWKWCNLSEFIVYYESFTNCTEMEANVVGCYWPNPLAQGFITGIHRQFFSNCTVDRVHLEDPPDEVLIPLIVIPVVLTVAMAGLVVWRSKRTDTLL
Procedure, shortened: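 Stable COS7 clone co-expressing hCTR2 and hRAMP3 was exposed to increasing peptide concentrations in Tyrode buffer (pH 7.4) with 100 µM IBMX and 0.1% casein for 15 min at 37 °C. Lysate cAMP was measured by AlphaScreen; EC50 came from 4-parameter logistic fitting.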

[3] = Assessment of physical stability (Thioflavin T fibrillation); assay type: physicochemical; set-up: key: FND = fibrillation not detected; FD = fibrillation detected; conditions: 1 mg/ml, 40° C., ThT; for Fibrillation pH 4.0 (Ac): 50 mM acetate buffer pH 4.0, 96 hours; for Fibrillation pH 7.0 (His): 50 mM histidine buffer pH 7.0, 96 hours; for Fibrillation pH 7.0 (Phos.): 50 mM phosphate buffer pH 7.0, 96 hours
Procedure, shortened: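 1 mg/ml peptide with 40 μM ThT in 50 mM phosphate pH 7.0, 50 mM histidine pH 7.0 or 50 mM acetate pH 4.0, in triplicate. Fluorescence read every 10 min after 300 s agitation over 96 h at 40 °C. Lag-time (h) is the intersection of linear fits to stable and growth phases.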

Normalized purity after 7 days, 40° C., pH 4 [1] | Normalized purity after 7 days, 40° C., pH 6 [1] | Normalized purity after 7 days, 40° C., pH 7.5 [1] | Normalized purity after 7 days, 40° C., pH 9 [1] | EC50 [2] | Fibrillation pH 4.0 (Ac) [3] | Fibrillation pH 7.0 (His) [3] | Fibrillation pH 7.0 (Phos.) [3] | Structure (SMILES)
A (A = >90%) | A (A = >90%) | B (B = 70-90%) | B (B = 70-90%) | 0.36 nM | FND | FND | FD | CC[C@H](C)[C@@H](C(=O)N[C@@H](CC(C)C)C(=O)N[C@@H](CO)C(=O)N[C@@H](CO)C(=O)N[C@H](C(=O)N[C@@H](CCC(=O)O)C(=O)N[C@H](C(=O)NCC(=O)N[C@@H](CO)C(=O)N[C@@H](CO)C(=O)N[C@H](C(=O)N1CCC[C@H]1C(N)=O)[C@@H](C)O)C(C)C)[C@@H](C)O)N(C)C(=O)[C@H](C)NC(=O)CN(C)C(=O)[C@H](Cc1ccccc1)NC(=O)[C@H](CO)NC(=O)[C@H](CO)NC(=O)[C@H](CCCNC(=N)N)NC(=O)[C@H](CCC(=O)O)NC(=O)[C@H](CC(C)C)NC(=O)[C@H](Cc1ccccc1)NC(=O)[C@H](Cc1c[nH]cn1)NC(=O)[C@H](C)NC(=O)[C@H](CC(C)C)NC(=O)[C@H](CCCNC(=N)N)NC(=O)[C@H](CCC(=O)O)NC(=O)[C@@H](NC(=O)[C@H](C)NC(=O)[C@@H]1CSSC[C@H](NC(=O)[C@H](CCCNC(=N)N)NC(=O)CC[C@H](NC(=O)CCCCCCCCCCCCCCCCCCC(=O)O)C(=O)O)C(=O)NCC(=O)N[C@@H]([C@@H](C)O)C(=O)N[C@@H](C)C(=O)N[C@@H]([C@@H](C)O)C(=O)N1)[C@@H](C)O [Compound 36, [19CD]-isoGlu-R-C( )-GTAT-C( )-ATERLAHFLERSSF-Gly(Me)-A-Ile(Me)-LSSTEVGSSTP-NH2] ({C20 diacid-γGlu}-RCGTATCATERLAHFLERSSF[Sar]A[NMeI]LSSTEVGSSTP-NH2; disulfide 2-7)
A (A = >90%) | B (B = 70-90%) | B (B = 70-90%) | B (B = 70-90%) | 0.079 nM | FND | FD | FND | CC[C@H](C)[C@@H](C(=O)N[C@@H](CC(C)C)C(=O)N[C@@H](CO)C(=O)N[C@@H](CO)C(=O)N[C@H](C(=O)N[C@@H](CCC(=O)O)C(=O)N[C@H](C(=O)NCC(=O)N[C@@H](CO)C(=O)N[C@@H](CC(N)=O)C(=O)N[C@H](C(=O)N1CCC[C@H]1C(N)=O)[C@@H](C)O)C(C)C)[C@@H](C)O)N(C)C(=O)[C@H](C)NC(=O)CN(C)C(=O)[C@H](Cc1ccccc1)NC(=O)[C@H](CO)NC(=O)[C@H](CO)NC(=O)[C@H](CCCNC(=N)N)NC(=O)[C@H](Cc1c[nH]cn1)NC(=O)[C@H](CC(C)C)NC(=O)[C@H](Cc1ccccc1)NC(=O)[C@H](Cc1c[nH]cn1)NC(=O)[C@H](C)NC(=O)[C@H](CC(C)C)NC(=O)[C@H](CCCNC(=N)N)NC(=O)[C@H](CCC(=O)O)NC(=O)[C@@H](NC(=O)[C@H](C)NC(=O)[C@@H]1CSSC[C@H](NC(=O)[C@H](CCCNC(=N)N)NC(=O)CC[C@H](NC(=O)CCCCCCCCCCCCCCCCCCC(=O)O)C(=O)O)C(=O)NCC(=O)N[C@@H]([C@@H](C)O)C(=O)N[C@@H](C)C(=O)N[C@@H]([C@@H](C)O)C(=O)N1)[C@@H](C)O [Compound 15, [19CD]-isoGlu-R-C( )-GTAT-C( )-ATERLAHFLHRSSF-Gly(Me)-A-Ile(Me)-LSSTEVGSNTP-NH2] ({C20 diacid-γGlu}-RCGTATCATERLAHFLHRSSF[Sar]A[NMeI]LSSTEVGSNTP-NH2; disulfide 2-7)
A (A = >90%) | B (B = 70-90%) |  | B (B = 70-90%) | 0.22 nM | FND | FND | FND | CC[C@H](C)[C@@H](C(=O)N[C@@H](CC(C)C)C(=O)N[C@@H](CO)C(=O)N[C@@H](CO)C(=O)N[C@H](C(=O)N[C@@H](CCC(=O)O)C(=O)N[C@H](C(=O)NCC(=O)N[C@@H](CO)C(=O)N[C@@H](CC(N)=O)C(=O)N[C@H](C(=O)N1C[C@H](O)C[C@H]1C(N)=O)[C@@H](C)O)C(C)C)[C@@H](C)O)N(C)C(=O)[C@H](C)NC(=O)CN(C)C(=O)[C@H](Cc1ccccc1)NC(=O)[C@H](CO)NC(=O)[C@H](CO)NC(=O)[C@H](CCCNC(=N)N)NC(=O)[C@H](CC(N)=O)NC(=O)[C@H](CC(C)C)NC(=O)[C@H](Cc1ccccc1)NC(=O)[C@H](Cc1c[nH]cn1)NC(=O)[C@H](C)NC(=O)[C@H](CC(C)C)NC(=O)[C@H](CCCNC(=N)N)NC(=O)[C@H](CCC(=O)O)NC(=O)[C@@H](NC(=O)[C@H](C)NC(=O)[C@@H]1CSSC[C@H](NC(=O)[C@H](CCCNC(=N)N)NC(=O)CC[C@H](NC(=O)CCCCCCCCCCCCCCCCCCC(=O)O)C(=O)O)C(=O)NCC(=O)N[C@@H]([C@@H](C)O)C(=O)N[C@@H](C)C(=O)N[C@@H]([C@@H](C)O)C(=O)N1)[C@@H](C)O [Compound 6, [19CD]-isoGlu-R-C( )-GTAT-C( )-ATERLAHFLNRSSF-Gly(Me)-A-Ile(Me)-LSSTEVGSNT-Hyp-NH2] ({C20 diacid-γGlu}-RCGTATCATERLAHFLNRSSF[Sar]A[NMeI]LSSTEVGSNT[Hyp]-NH2; disulfide 2-7)
A (A = >90%) | B (B = 70-90%) | B (B = 70-90%) | B (B = 70-90%) | 0.13 nM | FND | FND | FND | CC[C@H](C)[C@@H](C(=O)N[C@@H](CC(C)C)C(=O)N[C@@H](CO)C(=O)N[C@@H](CO)C(=O)N[C@H](C(=O)N[C@@H](CCC(=O)O)C(=O)N[C@H](C(=O)NCC(=O)N[C@@H](CO)C(=O)N[C@@H](CO)C(=O)N[C@H](C(=O)N1C[C@H](O)C[C@H]1C(N)=O)[C@@H](C)O)C(C)C)[C@@H](C)O)N(C)C(=O)[C@H](C)NC(=O)CN(C)C(=O)[C@H](Cc1ccccc1)NC(=O)[C@H](CO)NC(=O)[C@H](CO)NC(=O)[C@H](CCCNC(=N)N)NC(=O)[C@H](CCC(N)=O)NC(=O)[C@H](CC(C)C)NC(=O)[C@H](Cc1ccccc1)NC(=O)[C@H](Cc1c[nH]cn1)NC(=O)[C@H](C)NC(=O)[C@H](CC(C)C)NC(=O)[C@H](CCCNC(=N)N)NC(=O)[C@H](CCC(=O)O)NC(=O)[C@@H](NC(=O)[C@H](C)NC(=O)[C@@H]1CSSC[C@H](NC(=O)[C@H](CCCNC(=N)N)NC(=O)CC[C@H](NC(=O)CCCCCCCCCCCCCCCCCCC(=O)O)C(=O)O)C(=O)NCC(=O)N[C@@H]([C@@H](C)O)C(=O)N[C@@H](C)C(=O)N[C@@H]([C@@H](C)O)C(=O)N1)[C@@H](C)O [Compound 28, [19CD]-isoGlu-R-C( )-GTAT-C( )-ATERLAHFLQRSSF-Gly(Me)-A-Ile(Me)-LSSTEVGSST-Hyp-NH2] ({C20 diacid-γGlu}-RCGTATCATERLAHFLQRSSF[Sar]A[NMeI]LSSTEVGSST[Hyp]-NH2; disulfide 2-7)

From patent publication US20210115104A1, “AMYLIN ANALOGUES” (Zealand Pharma A/S, priority 2015, published 2021)
